According to ChEMBL document CHEMBL3593172, “4-(N-Phenyl-N'-substituted benzenesulfonyl)-6-(4-hydroxyphenyl)quinolines as inhibitors of mammalian target of rapamycin” (Bioorg Med Chem, 2015):

Columns and labels:
HL-60 [1] = experiment: Cytotoxicity against human HL60 cells assessed as growth inhibition at 10 uM after 24 to 48 hrs by MTT assay relative to control; assay type: functional; conditions: read-out: GI
HL-60 [2] = experiment: Cytotoxicity against human HL60 cells assessed as growth inhibition at 30 uM after 24 to 48 hrs by MTT assay relative to control; assay type: functional; conditions: read-out: GI
HL-60 [3] = experiment: Cytotoxicity against human HL60 cells assessed as growth inhibition at 100 uM after 24 to 48 hrs by MTT assay relative to control; assay type: functional; conditions: read-out: GI
[4] = Cytotoxicity against human MIAPaCa2 cells assessed as growth inhibition at 10 uM after 24 to 48 hrs by MTT assay relative to control; assay type: functional; conditions: MIA PaCa-2, read-out: GI
[5] = Cytotoxicity against human MIAPaCa2 cells assessed as growth inhibition at 30 uM after 24 to 48 hrs by MTT assay relative to control; assay type: functional; conditions: MIA PaCa-2, read-out: GI
[6] = Cytotoxicity against human MIAPaCa2 cells assessed as growth inhibition at 100 uM after 24 to 48 hrs by MTT assay relative to control; assay type: functional; conditions: MIA PaCa-2, read-out: GI
HCT-116 [7] = experiment: Cytotoxicity against human HCT116 cells assessed as growth inhibition at 10 uM after 24 to 48 hrs by MTT assay relative to control; assay type: functional; conditions: read-out: GI
HCT-116 [8] = experiment: Cytotoxicity against human HCT116 cells assessed as growth inhibition at 30 uM after 24 to 48 hrs by MTT assay relative to control; assay type: functional; conditions: read-out: GI
HCT-116 [9] = experiment: Cytotoxicity against human HCT116 cells assessed as growth inhibition at 100 uM after 24 to 48 hrs by MTT assay relative to control; assay type: functional; conditions: read-out: GI
HepG2 [10] = experiment: Cytotoxicity against human HepG2 cells assessed as growth inhibition at 10 uM after 24 to 48 hrs by MTT assay relative to control; assay type: functional; conditions: read-out: GI
HepG2 [11] = experiment: Cytotoxicity against human HepG2 cells assessed as growth inhibition at 30 uM after 24 to 48 hrs by MTT assay relative to control; assay type: functional; conditions: read-out: GI
HepG2 [12] = experiment: Cytotoxicity against human HepG2 cells assessed as growth inhibition at 100 uM after 24 to 48 hrs by MTT assay relative to control; assay type: functional; conditions: read-out: GI
PC-3 [13] = experiment: Cytotoxicity against human PC3 cells assessed as growth inhibition at 10 uM after 24 to 48 hrs by MTT assay relative to control; assay type: functional; conditions: read-out: GI
PC-3 [14] = experiment: Cytotoxicity against human PC3 cells assessed as growth inhibition at 30 uM after 24 to 48 hrs by MTT assay relative to control; assay type: functional; conditions: read-out: GI
PC-3 [15] = experiment: Cytotoxicity against human PC3 cells assessed as growth inhibition at 100 uM after 24 to 48 hrs by MTT assay relative to control; assay type: functional; conditions: read-out: GI
HL-60 [16] = experiment: cells; conditions: Homo sapiens, HL-60, 48 h
Description: Cytotoxicity against human HL60 cells assessed as inhibition of cell proliferation after 48 hrs by MTT assay

cells = conditions: Homo sapiens, MIA PaCa-2, 48 h
Description: Cytotoxicity against human MIAPaCa2 cells assessed as inhibition of cell proliferation after 48 hrs by MTT assay

HCT-116 [17] = experiment: cells; conditions: Homo sapiens, HCT-116, 48 h
Description: Cytotoxicity against human HCT116 cells assessed as inhibition of cell proliferation after 48 hrs by MTT assay

HepG2 [18] = experiment: cells; conditions: Homo sapiens, HepG2, 48 h
Description: Cytotoxicity against human HepG2 cells assessed as inhibition of cell proliferation after 48 hrs by MTT assay

PC-3 [19] = experiment: cells; conditions: Homo sapiens, PC-3, 48 h
Description: Cytotoxicity against human PC3 cells assessed as inhibition of cell proliferation after 48 hrs by MTT assay

IC50 (HL-60 [16]) [µM] | IC50 (cells) [µM] | IC50 (HCT-116 [17]) [µM] | IC50 (HepG2 [18]) [µM] | IC50 (PC-3 [19]) [µM] | SMILES | inhibition of growth at 10 µM (HL-60 [1]) [%] | inhibition of growth at 30 µM (HL-60 [2]) [%] | inhibition of growth at 100 µM (HL-60 [3]) [%] | inhibition of growth at 10 µM [4] [%] | inhibition of growth at 30 µM [5] [%] | inhibition of growth at 100 µM [6] [%] | inhibition of growth at 10 µM (HCT-116 [7]) [%] | inhibition of growth at 30 µM (HCT-116 [8]) [%] | inhibition of growth at 100 µM (HCT-116 [9]) [%] | inhibition of growth at 10 µM (HepG2 [10]) [%] | inhibition of growth at 30 µM (HepG2 [11]) [%] | inhibition of growth at 100 µM (HepG2 [12]) [%] | inhibition of growth at 10 µM (PC-3 [13]) [%] | inhibition of growth at 30 µM (PC-3 [14]) [%] | inhibition of growth at 100 µM (PC-3 [15]) [%]
< 10 | < 10 | 28 | 12 | 25 | O=S(=O)(c1ccccc1)N(c1ccccc1)c1ccnc2ccc(-c3ccc(O)cc3)cc12 | 87 | 89 | 91 | 80 | 84 | 87 | 8 | 57 | 89 | 40 | 90 | 91 | 15 | 61 | 76
< 10 | < 10 | 53 | 19 | 45 | Cc1ccc(S(=O)(=O)N(c2ccccc2)c2ccnc3ccc(-c4ccc(O)cc4)cc23)cc1 | 78 | 90 | 92 | 80 | 88 | 89 | 21 | 34 | 82 | 13 | 90 | 97 | 20 | 43 | 72
< 10 | < 10 | 31 | 18 | 44 | CC(C)(C)c1ccc(S(=O)(=O)N(c2ccccc2)c2ccnc3ccc(-c4ccc(O)cc4)cc23)cc1 | 76 | 89 | 93 | 79 | 85 | 90 | 20 | 35 | 83 | 14 | 89 | 98 | 21 | 45 | 70
5 | 8 | 28 | 9 | 45 | Nc1ccc(S(=O)(=O)N(c2ccccc2)c2ccnc3ccc(-c4ccc(O)cc4)cc23)cc1 | 66 | 81 | 92 | 64 | 84 | 85 | 33 | 54 | 88 | 59 | 70 | 71 | 30 | 40 | 84

Continued, compound first:

SMILES | IC50 (HL-60 [16]) [µM] | IC50 (cells) [µM] | IC50 (HCT-116 [17]) [µM] | IC50 (HepG2 [18]) [µM] | IC50 (PC-3 [19]) [µM] | inhibition of growth at 10 µM (HL-60 [1]) [%] | inhibition of growth at 30 µM (HL-60 [2]) [%] | inhibition of growth at 100 µM (HL-60 [3]) [%] | inhibition of growth at 10 µM [4] [%] | inhibition of growth at 30 µM [5] [%] | inhibition of growth at 100 µM [6] [%] | inhibition of growth at 10 µM (HCT-116 [7]) [%] | inhibition of growth at 30 µM (HCT-116 [8]) [%] | inhibition of growth at 100 µM (HCT-116 [9]) [%] | inhibition of growth at 10 µM (HepG2 [10]) [%] | inhibition of growth at 30 µM (HepG2 [11]) [%] | inhibition of growth at 100 µM (HepG2 [12]) [%] | inhibition of growth at 10 µM (PC-3 [13]) [%] | inhibition of growth at 30 µM (PC-3 [14]) [%] | inhibition of growth at 100 µM (PC-3 [15]) [%]
O=S(=O)(c1ccc2c(c1)OCCO2)N(c1ccccc1)c1ccnc2ccc(-c3ccc(O)cc3)cc12 | < 10 | < 10 | 70 | 12 | 65 | 87 | 90 | 90 | 79 | 84 | 86 | 17 | 26 | 68 | 46 | 87 | 88 | 27 | 38 | 62
Cc1c(C)c(C)c(S(=O)(=O)N(c2ccccc2)c2ccnc3ccc(-c4ccc(O)cc4)cc23)c(C)c1C | > 100 | > 100 | > 100 | > 100 | > 100 | 5 | 8 | 15 | 16 | 17 | 22 | 14 | 15 | 24 | 1 | 2 | 10 | 12 | 14 | 15
N#Cc1ccc(S(=O)(=O)N(c2ccccc2)c2ccnc3ccc(-c4ccc(O)cc4)cc23)cc1 | 58 | 78 | > 100 | > 100 | > 100 | 12 | 30 | 78 | 16 | 21 | 64 | 5 | 21 | 36 | 1 | 1 | 34 | 9 | 10 | 19
O=C(c1ccccc1F)N(c1ccccc1)c1ccnc2ccc(-c3ccc(O)cc3)cc12 | < 10 | 15 | 52 | 18 | 22 | 55 | 93 | 94 | 36 | 90 | 90 | 26 | 32 | 88 | 22 | 84 | 87 | 27 | 65 | 88
COc1ccc(S(=O)(=O)N(c2ccccc2)c2ccnc3ccc(-c4ccc(O)cc4)cc23)cc1 | < 10 | < 10 | 50 | 20 | 65 | 63 | 87 | 89 | 63 | 81 | 86 | 10 | 39 | 79 | 20 | 78 | 86 | 15 | 39 | 61
Oc1ccc(-c2ccc3nccc(Nc4ccccc4)c3c2)cc1 | 14 | 18 | 27 | 18 | 21 | 41 | 65 | 82 | 28 | 91 | 93 | 8 | 53 | 86 | 8 | 53 | 86 | 27 | 74 | 90
O=C(c1cccnc1Cl)N(c1ccccc1)c1ccnc2ccc(-c3ccc(O)cc3)cc12 | < 10 | < 10 | 16 | 19 | 11 | 92 | 94 | 95 | 69 | 89 | 89 | 29 | 88 | 89 | 19 | 87 | 88 | 47 | 90 | 90
